From patent publication US20180099937A1, “NOVEL ARYL-CYANOGUANIDINE COMPOUNDS” (Bayer Pharma Aktiengesellschaft, priority 2015, published 2018) come the findings set out here.

In the assay the target is SMYD2 (Homo sapiens, UniProt Q9NRG4). As to the kind of experiment: Scintillation Proximity Assay (SPA) for detection of SMYD2 enzymatic inhibition. The class given is biochemical. The following applies: SMYD2 full length enzyme, p53 Peptide substrate 1.0 μM, 3H-SAM 60 nM; read-out: IC50 [mol/l] (SPA Assay). Also on record: The SMYD2 full length enzyme was produced in-house by expression (with an N-terminal 6× His tag) in E. coli; 6xHis (N); made in house; host or cells: E. coli. The source says: 1.1 Scintillation Proximity Assay (SPA) for Detection of SMYD2 Enzymatic Inhibition
Sequence of SMYD2 (Q9NRG4 whole entry): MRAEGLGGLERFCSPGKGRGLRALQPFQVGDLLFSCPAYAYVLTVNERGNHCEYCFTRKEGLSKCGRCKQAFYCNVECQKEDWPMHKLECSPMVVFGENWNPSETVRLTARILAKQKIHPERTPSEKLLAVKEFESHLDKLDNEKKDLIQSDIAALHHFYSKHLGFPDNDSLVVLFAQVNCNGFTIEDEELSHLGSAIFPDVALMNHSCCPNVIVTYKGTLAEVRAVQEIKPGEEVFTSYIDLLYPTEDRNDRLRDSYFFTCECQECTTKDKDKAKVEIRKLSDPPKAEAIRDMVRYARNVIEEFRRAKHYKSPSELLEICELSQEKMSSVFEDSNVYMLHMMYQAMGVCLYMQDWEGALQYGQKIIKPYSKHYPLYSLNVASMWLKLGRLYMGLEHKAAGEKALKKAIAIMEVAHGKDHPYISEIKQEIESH
SMYD2 inhibitory activities of the compounds described in the present invention were quantified using a scintillation proximity assay (SPA) which measures methylation by the enzyme of the synthetic, biotinylated peptide Btn-Ahx-[…]—Amid×TFA (Biosyntan) derived from p53 and referred to from here on as “p53 Peptide”. The SMYD2 full length enzyme was produced in-house by expression (with an N-terminal 6× His tag) in E. coli and purification by affinity chromatography on a Ni-NTA Sepharose column followed by a size exclusion chromatography step on a Superdex 200 16/60 column (GE Healthcare).
In a typical assay 11 different concentrations of each compound (0.1 nM, 0.33 nM, 1.1 nM, 3.8 nM, 13 nM, 44 nM, 0.15 μM, 0.51 μM, 1.7 μM, 5.9 μM and 20 μM) were tested in duplicate within the same microtiter plate. To this end, 100-fold concentrated compound solutions (in DMSO) were previously prepared by serial dilution (1:3.4) of 2 mM stocks in a clear low volume 384-well source microliter plate (Greiner Bio-One), from which 50 nl of compound solutions were transferred into a white low volume test microtiter plate from the same supplier. Subsequently, 2.5 μl SMYD2 in aqueous assay buffer [50 mM Tris/HCl pH 9.0 (AppliChem), 1 mM dithiothreitol (DTT, Sigma), 0.01% (w/v) bovine serum albumine (BSA, Sigma), 0.0022% (v/v) Pluronic (Sigma)] were added to the compounds in the test plate to a final enzyme concentration of —typically—3 nM (this parameter was adjusted depending on the activity of the enzyme lot in order to be within the linear dynamic range of the assay). The samples were then incubated for 15 min at 22° C. to allow pre-equilibration of the putative enzyme-inhibitor complexes before the start of the methylation reaction, which was initiated by the addition of 2.5 μl 2-fold concentrated solution (in assay buffer) of titriated S-Adenosyl-L-Methionine (3H-SAM, Perkin Elmer, final concentration: 60 nM) and p53 Peptide substrate (final concentration: 1.0 μM). The resulting mixture (5 μl final volume) was shortly centrifuged (2 min., 1500 rpm) and incubated at 22° C. during 30 min. Thereupon the reaction was stopped by adding 3 μl of Streptavidin PS SPA imaging beads (Perkin Elmer, final concentration of 3.12 μg/μl) and “cold” SAM (AK Scientific, 25 μM final concentration) for non-specific binding reduction. Plates containing the stopped reaction were sealed with transparent adhesive foil (Perkin Elmer), centrifuged (2 min., 1500 rpm), and further incubated for —at least—1 h at RT (or overnight at 4° C.) in order to allow the SPA signals to develop. Subsequently, the amount of product was evaluated by measuring the energy transfer from the β-particles emitted by the 3H-labeled substrate to the Europium scintillator co-polymerized in the polystyrene matrix of the PS imaging beads, using the standard settings for this purpose of a Viewlux (Perkin-Elmer) CCD plate imaging device (emission filter 613/55 (IFP). The resulting scintillation counts were taken as indicator for the amount of methylated peptide per well. The data were normalised using two sets of control wells (typically 16 each) for high−(=enzyme reaction with DMSO instead of test compound=0% =Minimum inhibition) and low−(=all assay components without enzyme=100% =Maximum inhibition) SMYD2 activity. IC50 values were calculated by fitting the normalized inhibition data to a 4-parameter logistic equation using the “Screener” analysis software from Genedata.
(In general: SPA uses beads or plates that emit light when radiolabelled molecules are held near them.)

For `CCN(C(=O)[C@H]1C[C@@H](F)CN1)C1CN(/C(=N\C#N)Nc2cccc(OC(F)F)c2)N=C1c1ccc(Cl)c(Cl)c1` (mixture of isomers) [Example 4, (4R)-N-[1-{N′-Cyano-N-[3-(difluoromethoxy)phenyl]carbamimidoyl}-3-(3,4-dichlorophenyl)-4,5-dihydro-1H-pyrazol-4-yl]-N-ethyl-4-fluoro-D-prolinamide], the IC50 worked out at 85.2 nM.

In the case of `CC1(C)CN[C@@H](C(=O)NC2CN(/C(=N\C#N)Nc3cccc(OC(F)F)c3)N=C2c2ccc(Cl)c(Cl)c2)C1` (mixture of isomers) [Example 7, N-[1-{N′-Cyano-N-[3-(difluoromethoxy)phenyl]carbamimidoyl}-3-(3,4-dichlorophenyl)-4,5-dihydro-1H-pyrazol-1-yl]-4,4-dimethyl-D-prolinamide], the IC50 was determined as 490 nM.

As to `CCN(C(=O)[C@H]1C[C@@H](O)CN1)C1CN(/C(=N\C#N)Nc2cccc(OC(F)F)c2F)N=C1c1ccc(Cl)c(Cl)c1` (mixture of isomers) [Example 14, (4R)-N-[1-{N′-Cyano-N-[3-(difluoromethoxy)-2-fluorophenyl]carbamimidoyl}-3-(3,4-dichlorophenyl)-4,5-dihydro-1H-pyrazol-4-yl]-N-ethyl-4-hydroxy-D-prolinamide], the IC50 worked out at 79.8 nM.

`CCN(C(=O)[C@H]1CCCN1)C1CN(/C(=N\C#N)Nc2ccc(F)c(OC(F)F)c2)N=C1c1ccc(Cl)c(Cl)c1` (mixture of isomers) [Example 15, N-[1-{N′-Cyano-N-[3-(difluoromethoxy)-4-fluorophenyl]carbamimidoyl}-3-(3,4-dichlorophenyl)-4,5-dihydro-1H-pyrazol-4-yl]-N-ethyl-D-prolinamide]: the IC50 is 24.4 nM.

On to `CCN(C(=O)[C@H]1C[C@@H](O)CN1)C1CN(/C(=N\C#N)Nc2ccc(F)c(OC(F)F)c2)N=C1c1ccc(Cl)c(Cl)c1` (mixture of isomers) [Example 16, (4R)-N-[1-{N′-Cyano-N-[3-(difluoromethoxy)-4-fluorophenyl]carbamimidoyl}-3-(3,4-dichlorophenyl)-4,5-dihydro-1H-pyrazol-4-yl]-N-ethyl-4-hydroxy-D-prolinamide], for which the IC50 was 111 nM.

For `CCN(C(=O)[C@H]1CCCN1)C1CN(/C(=N\C#N)Nc2cccc(OC(F)(F)F)c2)N=C1c1ccc(Cl)c(Cl)c1` (mixture of isomers) [Example 17, N-[1-{N′-Cyano-N-[3-(trifluoromethoxy)phenyl]carbamimidoyl}-3-(3,4-dichlorophenyl)-4,5-dihydro-1H-pyrazol-4-yl]-N-ethyl-D-prolinamide], the IC50 stood at 116 nM.

Consider `CCN(C(=O)[C@H]1CCCN1)C1CN(/C(=N\C#N)Nc2cc(OC(F)(F)F)ccc2OC)N=C1c1ccc(Cl)c(Cl)c1` (mixture of isomers) [Example 19, N-[1-{N′-Cyano-N-[2-methoxy-5-(trifluoromethoxy)phenyl]carbamimidayl}-3-(3,4-dichlorophenyl)-4,5-dihydro-1H-pyrazol-4-yl]-N-ethyl-D-prolinamide], for which the IC50 turned out to be 17.2 nM.

For the compound `CCN(C(=O)[C@H]1C[C@@H](O)CN1)C1CN(/C(=N\C#N)Nc2cc(OC(F)(F)F)ccc2OC)N=C1c1ccc(Cl)c(Cl)c1` (mixture of isomers) [Example 20, (4R)-N-[1-{N′-Cyano-N-[2-methoxy-5-(trifluoromethoxy)phenyl]carbamimidayl}-3-(3,4-dichlorophenyl)-4,5-dihydro-1H-pyrazol-4-yl]-N-ethyl-1-hydroxy-D-prolinamide], the IC50 is 22.4 nM.

For the compound `CCN(C(=O)[C@H]1CCCN1)C1CN(/C(=N\C#N)Nc2cccc(OC(F)(F)F)c2F)N=C1c1ccc(Cl)c(Cl)c1` (mixture of isomers) [Example 21, N-[1-{N′-Cyano-N-[2-fluoro-3-(trifluoromethoxy)phenyl]carbamimidoyl}-3-(3,4-dichlorophenyl)-4,5-dihydro-1H-pyrazol-4-yl]-N-ethyl-D-prolinamide], the IC50 stood at 50.5 nM.

Take `CCN(C(=O)[C@H]1CCCN1)C1CN(/C(=N\C#N)Nc2ccc(F)c(OC(F)(F)F)c2)N=C1c1ccc(Cl)c(Cl)c1` (mixture of isomers) [Example 22, N-[1-{N′-Cyano-N-[4-fluoro-3-(trifluoromethoxy)phenyl]carbamimidoyl}-3-(3,4-dichlorophenyl)-4,5-dihydro-1H-pyrazol-4-yl]-N-ethyl-D-prolinamide]: the IC50 worked out at 50.6 nM.

Take `CCN(C(=O)[C@H]1CCN1)C1CN(/C(=N\C#N)Nc2cc(F)cc(OC(F)(F)F)c2)N=C1c1ccc(Cl)c(Cl)c1` (mixture of isomers) [Example 23, (2R)-N-[1-{N′-Cyano-N-[3-fluoro-5-(trifluoromethoxy)phenyl]carbamimidoyl}-3-(3,4-dichlorophenyl)-4,5-dihydro-1H-pyrazol-4-yl]-N-ethylazetidine-2-carboxamide]: the IC50 was 43.2 nM.

For `CCN(C(=O)[C@H]1CCCN1)C1CN(/C(=N\C#N)Nc2cc(F)cc(OC(F)(F)F)c2)N=C1c1ccc(Cl)c(Cl)c1` (mixture of isomers) [Example 24, N-[1-{N′-Cyano-N-[3-fluoro-5-(trifluoromethoxy)phenyl]carbamimidoyl}-3-(3,4-dichlorophenyl)-4,5-dihydro-1H-pyrazol-4-yl]-N-ethyl-D-prolinamide], the IC50 is 65.1 nM.

As for `CCN(C(=O)[C@H]1CCCN1)C1CN(/C(=N\C#N)Nc2cc(OC(F)(F)F)ccc2F)N=C1c1ccc(Cl)c(Cl)c1` (mixture of isomers) [Example 26, N-[1-{N′-Cyano-N-[2-fluoro-5-(trifluoromethoxy)phenyl]carbamimidoyl}-3-(3,4-dichlorophenyl)-4,5-dihydro-1H-pyrazol-4-yl]-N-ethyl-D-prolinamide], the IC50 stood at 61.3 nM.

For the compound `CCN(C(=O)[C@H]1CCCN1)C1CN(/C(=N\C#N)Nc2cc(C(F)(F)F)ccc2OC)N=C1c1ccc(Cl)c(Cl)c1` (mixture of isomers) [Example 27, N-[1-{N′-Cyano-N-[2-methoxy-5-(trifluoromethyl)phenyl]carbamimidoyl}-3-(3,4-dichlorophenyl)-4,5-dihydro-1H-pyrazol-4-yl]-N-ethyl-D-prolinamide], the IC50 worked out at 4.54 nM.

Take `CCN(C(=O)[C@H]1C[C@@H](O)CN1)C1CN(/C(=N\C#N)Nc2cc(C(F)(F)F)ccc2OC(F)(F)F)N=C1c1ccc(Cl)c(Cl)c1` (mixture of isomers) [Example 29, (4R)-N-[1-{N′-Cyano-N-[2-(trifluoromethoxy)-5-(trifluoromethyl)phenyl]carbamimidoyl}-3-(3,4-dichlorophenyl)-4,5-dihydro-1H-pyrazol-4-yl]-N-ethyl-4-hydroxy-D-prolinamide]: the IC50 is 221 nM.

For the compound `CCN(C(=O)[C@H]1CCCN1)C1CN(/C(=N\C#N)Nc2cc(C(F)(F)F)ccc2OC(F)(F)F)N=C1c1ccc(Cl)c(Cl)c1` (mixture of isomers) [Example 30, N-[1-{N′-Cyano-N-[2-(trifluoromethoxy)-5-(trifluoromethyl)phenyl]carbamimidoyl}-3-(3,4-dichlorophenyl)-4,5-dihydro-1H-pyrazol-4-yl]-N-ethyl-D-prolinamide], the IC50 turned out to be 96.6 nM.

Consider `CCN(C(=O)[C@H]1CCCN1)C1CN(/C(=N\C#N)Nc2cccc(CC(F)(F)F)c2)N=C1c1ccc(Cl)c(Cl)c1` (mixture of isomers) [Example 31, N-[1-{N′-Cyano-N-[3-(2,2,2-trifluorelethyl)phenyl]carbamimidayl}-3-(3,4-dichlorophenyl)-4,5-dihydro-1H-pyrazol-4-yl]-N-ethyl-D-prolinamide], for which the IC50 is 23.7 nM.
